{
  "source": "the NIST ThermoML archive (doi:10.1021/je200862b)",
  "key": {"[1]": {"details": "101 kPa, Liquid; for viscosity: Capillary tube (Ostwald / Ubbelohde) method"}, "[2]": {"experiment": "xn = mol fraction of the nth substance listed", "details": "101 kPa, Liquid; for viscosity: Capillary tube (Ostwald / Ubbelohde) method; for mass density: Vibrating tube method"}},
  "note": "± gives the expanded uncertainty stated by the source.",
  "data": [
    {"smiles": "CCN(CC)c1ccccc1", "note": "[N,N-diethylaniline]", "values": [
      {"measurement": "viscosity", "setting": "[1]; 303.15 K", "result": "1.703 ± 0.31", "unit": "mPa·s"},
      {"measurement": "mass density", "setting": "[1]; 303.15 K, Vibrating tube method", "result": "925.98 ± 2.7", "unit": "kg/m3"},
      {"measurement": "viscosity", "setting": "[1]; 313.15 K", "result": "1.402 ± 0.2", "unit": "mPa·s"},
      {"measurement": "mass density", "setting": "[1]; 313.15 K, Vibrating tube method", "result": "917.72 ± 3", "unit": "kg/m3"},
      {"measurement": "viscosity", "setting": "[1]; 323.15 K", "result": "1.049 ± 0.13", "unit": "mPa·s"},
      {"measurement": "mass density", "setting": "[1]; 323.15 K, Vibrating tube method", "result": "912.8 ± 2.4", "unit": "kg/m3"}
    ]},
    {"smiles": "CCN(CC)c1ccccc1", "note": "[N,N-diethylaniline] + CCC(=O)O", "values": [
      {"measurement": "viscosity", "setting": "[2]; 303.15 K, x2 = 0", "result": "1.703 ± 0.31", "unit": "mPa·s"},
      {"measurement": "viscosity", "setting": "[2]; 303.15 K, x2 = 0.1047", "result": "1.801 ± 0.31", "unit": "mPa·s"},
      {"measurement": "viscosity", "setting": "[2]; 303.15 K, x2 = 0.2096", "result": "2.04 ± 0.31", "unit": "mPa·s"},
      {"measurement": "viscosity", "setting": "[2]; 303.15 K, x2 = 0.3142", "result": "2.404 ± 0.31", "unit": "mPa·s"},
      {"measurement": "viscosity", "setting": "[2]; 303.15 K, x2 = 0.4164", "result": "2.91 ± 0.31", "unit": "mPa·s"},
      {"measurement": "viscosity", "setting": "[2]; 303.15 K, x2 = 0.5177", "result": "3.663 ± 0.31", "unit": "mPa·s"},
      {"measurement": "viscosity", "setting": "[2]; 303.15 K, x2 = 0.6097", "result": "4.04 ± 0.31", "unit": "mPa·s"},
      {"measurement": "viscosity", "setting": "[2]; 303.15 K, x2 = 0.7077", "result": "3.968 ± 0.31", "unit": "mPa·s"},
      {"measurement": "viscosity", "setting": "[2]; 303.15 K, x2 = 0.8123", "result": "3.26 ± 0.31", "unit": "mPa·s"},
      {"measurement": "viscosity", "setting": "[2]; 303.15 K, x2 = 0.9156", "result": "1.532 ± 0.31", "unit": "mPa·s"},
      {"measurement": "mass density", "setting": "[2]; 303.15 K, x2 = 0", "result": "925.98 ± 2.7", "unit": "kg/m3"},
      {"measurement": "mass density", "setting": "[2]; 303.15 K, x2 = 0.1047", "result": "933.41 ± 2.7", "unit": "kg/m3"},
      {"measurement": "mass density", "setting": "[2]; 303.15 K, x2 = 0.2096", "result": "942.07 ± 2.7", "unit": "kg/m3"},
      {"measurement": "mass density", "setting": "[2]; 303.15 K, x2 = 0.3142", "result": "952.1 ± 2.7", "unit": "kg/m3"},
      {"measurement": "mass density", "setting": "[2]; 303.15 K, x2 = 0.4164", "result": "963.82 ± 2.7", "unit": "kg/m3"},
      {"measurement": "mass density", "setting": "[2]; 303.15 K, x2 = 0.5177", "result": "977.88 ± 2.7", "unit": "kg/m3"},
      {"measurement": "mass density", "setting": "[2]; 303.15 K, x2 = 0.6097", "result": "989.1 ± 2.7", "unit": "kg/m3"},
      {"measurement": "mass density", "setting": "[2]; 303.15 K, x2 = 0.7077", "result": "996.15 ± 2.7", "unit": "kg/m3"},
      {"measurement": "mass density", "setting": "[2]; 303.15 K, x2 = 0.8123", "result": "995 ± 2.7", "unit": "kg/m3"},
      {"measurement": "mass density", "setting": "[2]; 303.15 K, x2 = 0.9156", "result": "990.93 ± 2.7", "unit": "kg/m3"},
      {"measurement": "viscosity", "setting": "[2]; 313.15 K, x2 = 0", "result": "1.402 ± 0.2", "unit": "mPa·s"},
      {"measurement": "viscosity", "setting": "[2]; 313.15 K, x2 = 0.1047", "result": "1.45 ± 0.2", "unit": "mPa·s"},
      {"measurement": "viscosity", "setting": "[2]; 313.15 K, x2 = 0.2096", "result": "1.59 ± 0.2", "unit": "mPa·s"},
      {"measurement": "viscosity", "setting": "[2]; 313.15 K, x2 = 0.3142", "result": "1.765 ± 0.2", "unit": "mPa·s"},
      {"measurement": "viscosity", "setting": "[2]; 313.15 K, x2 = 0.4164", "result": "2.118 ± 0.2", "unit": "mPa·s"},
      {"measurement": "viscosity", "setting": "[2]; 313.15 K, x2 = 0.5177", "result": "2.527 ± 0.2", "unit": "mPa·s"},
      {"measurement": "viscosity", "setting": "[2]; 313.15 K, x2 = 0.6097", "result": "2.88 ± 0.2", "unit": "mPa·s"},
      {"measurement": "viscosity", "setting": "[2]; 313.15 K, x2 = 0.7077", "result": "2.737 ± 0.2", "unit": "mPa·s"},
      {"measurement": "viscosity", "setting": "[2]; 313.15 K, x2 = 0.8123", "result": "2.086 ± 0.2", "unit": "mPa·s"},
      {"measurement": "viscosity", "setting": "[2]; 313.15 K, x2 = 0.9156", "result": "1.247 ± 0.2", "unit": "mPa·s"},
      {"measurement": "mass density", "setting": "[2]; 313.15 K, x2 = 0", "result": "917.72 ± 3", "unit": "kg/m3"},
      {"measurement": "mass density", "setting": "[2]; 313.15 K, x2 = 0.1047", "result": "924.61 ± 3", "unit": "kg/m3"},
      {"measurement": "mass density", "setting": "[2]; 313.15 K, x2 = 0.2096", "result": "932.8 ± 3", "unit": "kg/m3"},
      {"measurement": "mass density", "setting": "[2]; 313.15 K, x2 = 0.3142", "result": "942.21 ± 3", "unit": "kg/m3"},
      {"measurement": "mass density", "setting": "[2]; 313.15 K, x2 = 0.4164", "result": "953.72 ± 3", "unit": "kg/m3"},
      {"measurement": "mass density", "setting": "[2]; 313.15 K, x2 = 0.5177", "result": "967.27 ± 3", "unit": "kg/m3"},
      {"measurement": "mass density", "setting": "[2]; 313.15 K, x2 = 0.6097", "result": "977.5 ± 3", "unit": "kg/m3"},
      {"measurement": "mass density", "setting": "[2]; 313.15 K, x2 = 0.7077", "result": "983.95 ± 3", "unit": "kg/m3"},
      {"measurement": "mass density", "setting": "[2]; 313.15 K, x2 = 0.8123", "result": "982.7 ± 3", "unit": "kg/m3"},
      {"measurement": "mass density", "setting": "[2]; 313.15 K, x2 = 0.9156", "result": "980.07 ± 3", "unit": "kg/m3"},
      {"measurement": "viscosity", "setting": "[2]; 323.15 K, x2 = 0", "result": "1.049 ± 0.13", "unit": "mPa·s"},
      {"measurement": "viscosity", "setting": "[2]; 323.15 K, x2 = 0.1047", "result": "1.068 ± 0.13", "unit": "mPa·s"},
      {"measurement": "viscosity", "setting": "[2]; 323.15 K, x2 = 0.2096", "result": "1.173 ± 0.13", "unit": "mPa·s"},
      {"measurement": "viscosity", "setting": "[2]; 323.15 K, x2 = 0.3142", "result": "1.315 ± 0.13", "unit": "mPa·s"},
      {"measurement": "viscosity", "setting": "[2]; 323.15 K, x2 = 0.4164", "result": "1.555 ± 0.13", "unit": "mPa·s"},
      {"measurement": "viscosity", "setting": "[2]; 323.15 K, x2 = 0.5177", "result": "1.865 ± 0.13", "unit": "mPa·s"},
      {"measurement": "viscosity", "setting": "[2]; 323.15 K, x2 = 0.6097", "result": "2.1 ± 0.13", "unit": "mPa·s"},
      {"measurement": "viscosity", "setting": "[2]; 323.15 K, x2 = 0.7077", "result": "1.949 ± 0.13", "unit": "mPa·s"},
      {"measurement": "viscosity", "setting": "[2]; 323.15 K, x2 = 0.8123", "result": "1.51 ± 0.13", "unit": "mPa·s"},
      {"measurement": "viscosity", "setting": "[2]; 323.15 K, x2 = 0.9156", "result": "0.9723 ± 0.13", "unit": "mPa·s"},
      {"measurement": "mass density", "setting": "[2]; 323.15 K, x2 = 0", "result": "912.8 ± 2.4", "unit": "kg/m3"},
      {"measurement": "mass density", "setting": "[2]; 323.15 K, x2 = 0.1047", "result": "919.51 ± 2.4", "unit": "kg/m3"},
      {"measurement": "mass density", "setting": "[2]; 323.15 K, x2 = 0.2096", "result": "926.38 ± 2.4", "unit": "kg/m3"},
      {"measurement": "mass density", "setting": "[2]; 323.15 K, x2 = 0.3142", "result": "934.92 ± 2.4", "unit": "kg/m3"},
      {"measurement": "mass density", "setting": "[2]; 323.15 K, x2 = 0.4164", "result": "944.35 ± 2.4", "unit": "kg/m3"},
      {"measurement": "mass density", "setting": "[2]; 323.15 K, x2 = 0.5177", "result": "955.31 ± 2.4", "unit": "kg/m3"},
      {"measurement": "mass density", "setting": "[2]; 323.15 K, x2 = 0.6097", "result": "965.34 ± 2.4", "unit": "kg/m3"},
      {"measurement": "mass density", "setting": "[2]; 323.15 K, x2 = 0.7077", "result": "971.29 ± 2.4", "unit": "kg/m3"},
      {"measurement": "mass density", "setting": "[2]; 323.15 K, x2 = 0.8123", "result": "974.71 ± 2.4", "unit": "kg/m3"},
      {"measurement": "mass density", "setting": "[2]; 323.15 K, x2 = 0.9156", "result": "974.19 ± 2.4", "unit": "kg/m3"}
    ]},
    {"smiles": "CN(C)c1ccccc1", "note": "[N,N-dimethylaniline]", "values": [
      {"measurement": "viscosity", "setting": "[1]; 303.15 K", "result": "1.174 ± 0.039", "unit": "mPa·s"},
      {"measurement": "mass density", "setting": "[1]; 303.15 K, Pycnometric method", "result": "948.02 ± 2.1", "unit": "kg/m3"},
      {"measurement": "viscosity", "setting": "[1]; 313.15 K", "result": "0.9823 ± 0.04", "unit": "mPa·s"},
      {"measurement": "mass density", "setting": "[1]; 313.15 K, Pycnometric method", "result": "938.5 ± 2.4", "unit": "kg/m3"},
      {"measurement": "viscosity", "setting": "[1]; 323.15 K", "result": "0.8259 ± 0.036", "unit": "mPa·s"},
      {"measurement": "mass density", "setting": "[1]; 323.15 K, Pycnometric method", "result": "930.72 ± 2", "unit": "kg/m3"}
    ]}
  ]
}
